Test results taken from patent US7141557B2, “Lipid analogs for treating viral infections” (Wake Forest University, priority 1994, dated 2006).

Tests used:
[1] = test system: HIV-1; experiment: Anti-HIV-1 syncytial plaque assay using CEM-SS cell monolayers; assay type: cell-based, human immunodeficiency virus type 1 (HIV-1); settings: for inhibition of HIV-1 activity in CEM-SS cells: in nanomolar concentration; for IC50: HIV-1 syncytial plaque formation, CEM-SS cell monolayers, plaques counted at five days
Description: In brief, CEM-SS cell monolayers were infected with HIV-1. Infected cells were overlaid with RPMI-1640 medium plus 10 percent fetal bovine serum (FBS) supplemented with different concentrations of inhibitor. Plaques were counted at five days after infection. In this assay HIV-1 syncytial plaques are seen as large, multicellular foci (10 to 25 nuclei/syncytium) that appear either brown and granular or clear. Since the number of HIV-1 syncytial plaques correlates with reverse transcriptase (RT) and p24 core antigen activity in the HIV-1 infected cell overlay fluids, the syncytial plaque assay can be used to quantify the amount of infectious virus. Reverse transcriptase activity was assayed according to a described procedure (B. J. Poeisz et al., Proc. Natl. Acad. Scie. (U.S.A.) 77, 7415 (1980)). The activity of p24 core antigen induced by HIV-1 infection of CEM-SS cells was measured spectrophotometrically using the commercial Coulter EIA.

[2] = test system: CEM-SS cells; experiment: Cytotoxicity by uptake of TdR-H3 into total DNA in CEM-SS cells; assay type: cell-based; settings: serial concentrations of compound
[3] = test system: HepG2 cells; settings: read-out: cytotoxicity (TC50); HepG2 cells transfected with HBV genomes; neutral red dye uptake
Experimental: Human hepatoblastomas (HepG2) cells were tranfected with plasmid DNA containing tandem copies of HBV genomes. These cells constituitively replicate HBV particles. HepG2 cells were treated with varying concentrations of CP-128 to determine the toxic cell concentration (TC50) by neutral red dye uptake. Also, the inhibitory concentration (IC50) of CP-128 for HBV replication was determined by ELISA.

[4] = test system: HBV; experiment: Inhibition of HBV replication in transfected HepG2 cells by ELISA; assay type: cell-based; settings: read-out: anti-HBV activity (IC50)
Description: These cells constituitively replicate HBV particles.

[5] = test system: HBV-induced DNA, core antigen (HBcAg) and "e" antigen (HBeAg); experiment: Mechanism studies: cellular production of HBV-induced DNA, core antigen and e antigen; assay type: cell-based

Row | Structure (SMILES) | inhibition of HIV-1 activity in CEM-SS cells [1] | IC50 [2] | IC50 [1] | CC50 [3] | IC50 [4] | effect on cellular production of HBV-induced DNA, core antigen (HBcAg) and "e" antigen (HBeAg) [5]
1 | CCCCCCCCCCCCCCCCSC1CCCC(OP(=O)([O-])OCC[N+](C)(C)C)C1 (stereo not shown) [INK-1, 3-hexadecylthio-cyclohexylphosphocholine] | substantially inhibit |  |  |  |  | 
2 | CCCCCCCCCCCCOCC(COP(=O)([O-])OCC[N+](C)(C)C)OCCCCCCCCCC (stereo not shown) [CP-129, 1-dodecyloxy-2-decyloxypropyl-3-phosphocholine] | substantially inhibit | 75.7 µM | 0.64 µM |  |  | 
3 | CCCCCCCCCCCC(=O)NCC(COP(=O)([O-])OCC[N+](C)(C)C)OCCCCCCCC (stereo not shown) [CP-130, 1-dodecanamido-2-octyloxypropyl-3-phosphocholine] | substantially inhibit | 67.2 µM | 0.11 µM |  |  | 
4 | CCCCCCCCCCCCOC(CNC(=O)CCCCCCCCCCC)COP(=O)([O-])OCC[N+](C)(C)C (stereo not shown) [CP-131, 1-dodecanamido-2-dodecyloxypropyl-3-phosphocholine] | substantially inhibit | 36.6 µM | 0.32 µM |  |  | 
5 | CCCCCCCCCCCC(=O)NCC(COP(=O)([O-])OCC[N+](C)(C)C)OCCCCCCCCCC (stereo not shown) [CP-128, 1-dodecanamido-2-decyloxypropyl-3-phosphocholine] | substantially inhibit | 31.6 µM | 0.14 µM | 61.7 µM | 15.6 µM | inhibitory effect
